Test results as given in patent publication US10344019B2 (priority 2010, dated 2019).
Where two headings read alike, the source gives them in different places.

Columns and labels:
Format in all cases: cell-based
[1] = test system: HCV 4a Rluc cells (NS5A chimeric genotype 1b Con1 replicon with genotype 4a NS5A gene); assay: microbe, parasite or virus in culture; conditions: Hepatitis C virus, read-out: 4a
Outline: (§1)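 Replicon cells stably carrying the listed RLuc-encoding dicistronic replicons were seeded and treated with DMSO serial dilutions of compound (10 mM stocks) diluted into culture medium. After 72 h, cells were lysed and Renilla luciferase activity measured. EC50 was derived by non-linear regression.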

[2] = test system: HCV 3a RLuc cells (NS5A chimeric genotype 1b Con1 replicon with consensus genotype 3a NS5A gene); assay: microbe, parasite or virus in culture; conditions: Hepatitis C virus
Outline: as §1

[3] = test system: HCV 1b RLuc cells (dicistronic genotype 1b Con1 replicon, RLuc reporter); assay: microbe, parasite or virus in culture; conditions: Hepatitis C virus, read-out: 1b (nM)
Outline: as §1

[4] = test system: HCV 2a JFH-1 Rluc cells (dicistronic genotype 2a JFH-1 replicon, RLuc reporter); assay: microbe, parasite or virus in culture; conditions: Hepatitis C virus, read-out: 2a JFH
Outline: as §1

[5] = test system: HCV 2b Rluc cells (NS5A chimeric genotype 2a JFH-1 replicon with genotype 2b MD2b-1 NS5A gene, M31 present); assay: microbe, parasite or virus in culture; conditions: Hepatitis C virus, read-out: 2b
Outline: as §1

[6] = test system: HCV 1a RLuc cells (dicistronic genotype 1a H77 replicon, RLuc reporter); assay: microbe, parasite or virus in culture; conditions: Hepatitis C virus, read-out: 1a
Outline: as §1

[7] = test system: HCV 2a Rluc cells (NS5A chimeric genotype 2a JFH-1 replicon with genotype 2a J6 strain NS5A gene, M31 present); assay: HCV replicon reporter assay, genotype 2a J6 (M31 present); conditions: Hepatitis C virus, read-out: 2a J6
Outline: as §1

[8] = read-out: 3a, genotype 3a replicon
[9] = read-out: 3a, genotype 3a NS5A chimeric replicon
[10] = genotype 2a JFH-1 RLuc replicon
[11] = read-out: 3a, genotype 3a NS5A chimeric 1b Con1 replicon
[12] = genotype 2a JFH-1 replicon, RLuc reporter
[13] = genotype 1a H77 replicon, RLuc reporter

SMILES | EC50 [1] | EC50 [2, 8] | EC50 [3] | EC50 ([4]; genotype 2a JFH-1 replicon) | EC50 [5] | EC50 ([6]; genotype 1a replicon) | EC50 [7] | EC50 [2, 9] | EC50 [4, 10] | EC50 ([6]; genotype 1a H77 RLuc replicon) | EC50 [2, 11] | EC50 [4, 12] | EC50 [6, 13] | EC50 ([2]; read-out: 3a, Table 1, genotype 3a NS5A chimeric replicon) | EC50 ([3]; 72 h) | EC50 ([4]; 72 h, Table 1, genotype 2a JFH-1 replicon, 72 hours) | EC50 ([6]; 72 h, Table 1, genotype 1a H77 replicon, 72 hours)
COC(=O)N[C@H](C(=O)N1CC2(CC2)C[C@H]1c1nc2ccc3cc(-c4ccc(-c5cnc([C@@H]6[C@H]7CC[C@H](C7)N6C(=O)[C@@H](NC(=O)OC)C(C)C)[nH]5)cc4)ccc3c2[nH]1)C(C)C [Example 387] | 0.001 to 0.99 nM | 0.001 to 0.99 nM | 0.009 nM | 0.001 to 0.999 nM | > 44 nM | 0.001 to 0.999 nM | > 44 nM |  |  |  |  |  |  |  |  |  | 
COC[C@H]1C[C@@H](c2ncc(-c3ccc(-c4ccc(-c5cnc([C@@H]6C[C@H](SC)CN6C(=O)[C@@H](NC(=O)OC)C(C)C)[nH]5)cc4)cc3)[nH]2)N(C(=O)[C@H](NC(=O)C2CC2)c2ccccc2)C1 [Example 570] | 0.001 to 0.99 nM |  | 0.033 nM |  | 0.001 to 0.999 nM |  | 0.001 to 0.999 nM | 0.001 to 0.99 nM | 0.001 to 0.999 nM | 0.001 to 0.999 nM |  |  |  |  |  |  | 
COC(=O)N[C@H](C(=O)N1CCC[C@H]1c1ncc(-c2ccc3cc(-c4ccc5c(c4)CCc4nc([C@@H]6CCCN6C(=O)[C@@H](NC(=O)OC)C(C)C)[nH]c4-5)ccc3c2)[nH]1)C(C)C [Example 114] | 0.001 to 0.99 nM |  | 0.011 nM |  | > 44 nM |  | > 44 nM |  |  |  | 1 to 4.99 nM | 1 to 44 nM | 0.001 to 0.999 nM |  |  |  | 
COCCC(=O)N[C@@H](C(=O)N1CCC[C@H]1c1ncc(-c2cc3c4c(c2)OCc2cc(-c5cnc([C@@H]6CCCN6C(=O)[C@H](NC(=O)CCOC)c6ccccc6)[nH]5)cc(c2-4)OC3)[nH]1)c1ccccc1 [Example 480] | 0.001 to 0.99 nM | 0.001 to 0.99 nM | 0.684 nM | 0.001 to 0.999 nM | 0.001 to 0.999 nM | 0.001 to 0.999 nM | 1 to 44 nM |  |  |  |  |  |  |  |  |  | 
COC(=O)N[C@H](C(=O)N1CC2(C[C@H]1c1nc3c([nH]1)-c1ccc(-c4ccc5c(ccc6nc([C@@H]7CCCN7C(=O)[C@H](NC(=O)OC)c7ccccc7)[nH]c65)c4)cc1CC3)OCCO2)C(C)C [Example 355] | 0.001 to 0.99 nM | 0.001 to 0.99 nM | 0.095 nM | 0.001 to 0.999 nM | 1 to 44 nM | 0.001 to 0.999 nM | 1 to 44 nM |  |  |  |  |  |  |  |  |  | 
CC(C)OC(=O)N[C@@H](C(=O)N1CCC[C@H]1c1ncc(-c2cc3c4c(c2)OCc2cc(-c5cnc([C@@H]6CCCN6C(=O)[C@H](NC(=O)OC(C)C)c6ccccc6)[nH]5)cc(c2-4)OC3)[nH]1)c1ccccc1 [Example 488] | 0.001 to 0.99 nM |  | 0.03 nM |  | 0.001 to 0.999 nM |  | 1 to 44 nM | 0.001 to 0.99 nM | 0.001 to 0.999 nM | 0.001 to 0.999 nM |  |  |  |  |  |  | 
COC[C@H]1C[C@@H](c2nc3ccc4cc(-c5ccc6c(ccc7nc([C@@H]8CCCN8C(=O)[C@@H](NC(=O)OC)C(C)C)[nH]c76)c5)ccc4c3[nH]2)N(C(=O)[C@H](NC(=O)C2CC2)c2ccccc2)C1 [Example 508] | 0.001 to 0.99 nM |  | 0.026 nM |  | 0.001 to 0.999 nM |  | 0.001 to 0.999 nM | 0.001 to 0.99 nM | 0.001 to 0.999 nM | 0.001 to 0.999 nM |  |  |  |  |  |  | 
COC(=O)N[C@H](C(=O)N1CCC[C@H]1c1nc2ccc3cc(-c4ccc5c(ccc6nc([C@@H]7CC8(CN7C(=O)[C@@H](NC(=O)OC)C(C)C)OCCO8)[nH]c65)c4)ccc3c2[nH]1)C(C)C [Example 363] | 0.001 to 0.99 nM | 1 to 4.99 nM | 0.025 nM | 0.001 to 0.999 nM | > 44 nM | 0.001 to 0.999 nM | 1 to 44 nM |  |  |  |  |  |  |  |  |  | 
COC(=O)N[C@H](C(=O)N1CCC[C@H]1c1ncc(-c2cc3c4c(c2)OCc2cc(-c5cnc([C@@H]6CCCN6C(=O)[C@@H](NC(=O)OC)C(C)C)[nH]5)cc(c2-4)OC3)[nH]1)C(C)C [Example 9] | 0.001 to 0.99 nM |  |  |  | 1 to 44 nM |  | > 44 nM |  |  |  |  |  |  | 0.001 to 0.99 nM | 0.022 nM | 0.001 to 0.999 nM | 0.001 to 0.999 nM
COC(=O)N[C@H](C(=O)N1CCC[C@H]1c1ncc(-c2ccc3cc(-c4ccc(-c5cnc([C@@H]6CCCN6C(=O)[C@H](NC(=O)OC)c6ccccc6)[nH]5)cc4)ccc3c2)[nH]1)[C@@H](C)OC(C)F (stereo partly shown) [Example 128] | 0.001 to 0.99 nM |  | 0.005 nM |  | > 44 nM |  | > 44 nM |  |  |  | 0.001 to 0.99 nM | 0.001 to 0.999 nM | 0.001 to 0.999 nM |  |  |  | 
